Values after ≈ are worked out from the molar mass of the structure shown.
System: C. albicans Gu5

Compound | MIC50
CC[C@H](C)[C@H](NC(=O)[C@H](CCCCN)NC(=O)[C@H](CCCCN)NC(=O)[C@H](C)NC(=O)[C@H](CC(C)C)NC(=O)[C@H](C)NC(=O)[C@H](C)NC(=O)[C@H](CC(C)C)NC(=O)[C@H](C)NC(=O)[C@H](CCCCN)NC(=O)[C@H](CC(C)C)NC(=O)[C@H](CC(N)=O)NC(=O)[C@@H](NC(=O)[C@H](CCCCN)NC(=O)CNC(=O)[C@H](CC(C)C)NC(=O)[C@H](CC(C)C)NC(=O)[C@H](Cc1ccc(O)cc1)NC(=O)CNC(=O)[C@H](C)NC(=O)CN1CCN(c2cc3c(cc2F)c(=O)c(C(=O)O)cn3C2CC2)CC1)[C@@H](C)CC)C(=O)N[C@@H](CC(C)C)C(N)=O [Compound 1, CIP-CH2CO-TP10-NH2] | 50 µM (≈ 128 µg/mL)
CC[C@H](C)[C@H](NC(=O)[C@H](CCCCN)NC(=O)[C@H](CCCCN)NC(=O)[C@H](C)NC(=O)[C@H](CC(C)C)NC(=O)[C@H](C)NC(=O)[C@H](C)NC(=O)[C@H](CC(C)C)NC(=O)[C@H](C)NC(=O)[C@H](CCCCN)NC(=O)[C@H](CC(C)C)NC(=O)[C@H](CC(N)=O)NC(=O)[C@@H](NC(=O)[C@H](CCCCN)NC(=O)CNC(=O)[C@H](CC(C)C)NC(=O)[C@H](CC(C)C)NC(=O)[C@H](Cc1ccc(O)cc1)NC(=O)CNC(=O)[C@H](C)NC(=O)c1cn(C2CC2)c2cc(N3CCNCC3)c(F)cc2c1=O)[C@@H](C)CC)C(=O)N[C@@H](CC(C)C)C(N)=O [Compound 2, CIP-TP10-NH2] | 25 µM (≈ 62.4 µg/mL)
CC[C@H](C)[C@H](NC(=O)[C@H](CCCCN)NC(=O)[C@H](CCCCN)NC(=O)[C@H](C)NC(=O)[C@H](CC(C)C)NC(=O)[C@H](C)NC(=O)[C@H](C)NC(=O)[C@H](CC(C)C)NC(=O)[C@H](C)NC(=O)[C@H](CCCCN)NC(=O)[C@H](CC(C)C)NC(=O)[C@H](CC(N)=O)NC(=O)[C@@H](NC(=O)[C@H](CCCCN)NC(=O)CNC(=O)[C@H](CC(C)C)NC(=O)[C@H](CC(C)C)NC(=O)[C@H](Cc1ccc(O)cc1)NC(=O)CNC(=O)[C@H](C)NC(=O)CCSSCCC(=O)N1CCN(c2cc3c(cc2F)c(=O)c(C(=O)O)cn3C2CC2)CC1)[C@@H](C)CC)C(=O)N[C@@H](CC(C)C)C(N)=O [Compound 3, CIP-S-S-TP10-NH2] | 12.5 µM (≈ 33.6 µg/mL)
CC[C@H](C)[C@H](NC(=O)[C@H](CCCCN)NC(=O)[C@H](CCCCN)NC(=O)[C@H](C)NC(=O)[C@H](CC(C)C)NC(=O)[C@H](C)NC(=O)[C@H](C)NC(=O)[C@H](CC(C)C)NC(=O)[C@H](C)NC(=O)[C@H](CCCCN)NC(=O)[C@H](CC(C)C)NC(=O)[C@H](CC(N)=O)NC(=O)[C@@H](NC(=O)[C@H](CCCCN)NC(=O)CNC(=O)[C@H](CC(C)C)NC(=O)[C@H](CC(C)C)NC(=O)[C@H](Cc1ccc(O)cc1)NC(=O)CNC(=O)[C@H](C)NC(=O)c1cn2c3c(c(N4CCN(C)CC4)c(F)cc3c1=O)OC[C@@H]2C)[C@@H](C)CC)C(=O)N[C@@H](CC(C)C)C(N)=O [Compound 4, LVX-TP10-NH2] | 25 µM (≈ 63.1 µg/mL)
CC[C@H](C)[C@H](NC(=O)[C@H](CCCCN)NC(=O)[C@H](CCCCN)NC(=O)[C@H](C)NC(=O)[C@H](CC(C)C)NC(=O)[C@H](C)NC(=O)[C@H](C)NC(=O)[C@H](CC(C)C)NC(=O)[C@H](C)NC(=O)[C@H](CCCCN)NC(=O)[C@H](CC(C)C)NC(=O)[C@H](CC(N)=O)NC(=O)[C@@H](NC(=O)[C@H](CCCCN)NC(=O)CNC(=O)[C@H](CC(C)C)NC(=O)[C@H](CC(C)C)NC(=O)[C@H](Cc1ccc(O)cc1)NC(=O)CNC(=O)[C@H](C)NC(=O)[C@@H](N)CSSC[C@H](NC(=O)c1cn2c3c(c(N4CCN(C)CC4)c(F)cc3c1=O)OC[C@@H]2C)C(=O)O)[C@@H](C)CC)C(=O)N[C@@H](CC(C)C)C(N)=O [Compound 5, LVXC-S-S-CTP10-NH2] | 12.5 µM (≈ 34.3 µg/mL)
CC[C@H](C)[C@H](NC(=O)[C@H](CCCCN)NC(=O)[C@H](CCCCN)NC(=O)[C@H](C)NC(=O)[C@H](CC(C)C)NC(=O)[C@H](C)NC(=O)[C@H](C)NC(=O)[C@H](CC(C)C)NC(=O)[C@H](C)NC(=O)[C@H](CCCCN)NC(=O)[C@H](CC(C)C)NC(=O)[C@H](CC(N)=O)NC(=O)[C@@H](NC(=O)[C@H](CCCCN)NC(=O)CNC(=O)[C@H](CC(C)C)NC(=O)[C@H](CC(C)C)NC(=O)[C@H](Cc1ccc(O)cc1)NC(=O)CNC(=O)[C@H](C)NC(=O)[C@@H](N)CSSC[C@H](N)C(=O)N1CCN(c2cc3c(cc2F)c(=O)c(C(=O)O)cn3C2CC2)CC1)[C@@H](C)CC)C(=O)N[C@@H](CC(C)C)C(N)=O [Compound 6, CIPC-S-S-CTP10-NH2] | 25 µM (≈ 67.9 µg/mL)
CC[C@H](C)[C@H](NC(=O)[C@H](CCCCN)NC(=O)[C@H](CCCCN)NC(=O)[C@H](C)NC(=O)[C@H](CC(C)C)NC(=O)[C@H](C)NC(=O)[C@H](C)NC(=O)[C@H](CC(C)C)NC(=O)[C@H](C)NC(=O)[C@H](CCCCN)NC(=O)[C@H](CC(C)C)NC(=O)[C@H](CC(N)=O)NC(=O)[C@@H](NC(=O)[C@H](CCCCN)NC(=O)CNC(=O)[C@H](CC(C)C)NC(=O)[C@H](CC(C)C)NC(=O)[C@H](Cc1ccc(O)cc1)NC(=O)CNC(=O)[C@H](C)N)[C@@H](C)CC)C(=O)N[C@@H](CC(C)C)C(N)=O [TP10-NH2, transportan 10, reference compound] | 100 µM (≈ 218 µg/mL)
